Test results reported in article PMC9005681, “Use of AD Informer Set compounds to explore validity of novel targets in Alzheimer's disease pathology” (Alzheimer's & Dementia : Translational Research & Clinical …, 2022).
Values joined by “and” are separate entries in the source; they are usually repeats but may differ in a detail not shown here. Equal values may be shown once.

Legend:
Assay in all cases: PDSP GPCR panel primary binding assays at 10 μM
[1] = target: T1, cloned human or rodent CNS receptors, channels, and transporters (PDSP panel) (Homo sapiens, UniProt P28222); conditions: 5-HT1B, primary assay; for Mean %: mean inhibition; for Inhibition 1: replicate 1; for Inhibition 2: replicate 2; for Inhibition 3: replicate 3; for Inhibition 4: replicate 4
T1 construct: expressed in transfected cells
T1 sequence (P28222 whole entry): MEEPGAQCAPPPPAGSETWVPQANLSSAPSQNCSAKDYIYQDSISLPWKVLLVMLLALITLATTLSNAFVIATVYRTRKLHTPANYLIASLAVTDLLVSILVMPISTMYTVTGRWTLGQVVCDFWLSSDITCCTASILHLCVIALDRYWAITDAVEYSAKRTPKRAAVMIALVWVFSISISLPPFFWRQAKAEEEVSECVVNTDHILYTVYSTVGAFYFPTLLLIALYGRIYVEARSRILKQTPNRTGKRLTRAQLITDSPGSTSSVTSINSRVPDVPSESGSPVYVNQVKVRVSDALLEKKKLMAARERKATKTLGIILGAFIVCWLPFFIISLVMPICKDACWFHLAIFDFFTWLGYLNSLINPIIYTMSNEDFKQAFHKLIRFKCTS
How it was run: (§1)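 Secondary binding curves (11 points, triplicate) were run at targets where the 10 μM primary screen, done in quadruplicate, displaced over 50% of radio-labelled standard ligand on average. Primary screening covered 46–47 cloned human or rodent CNS targets; H3, PBR and GABAA were not followed up.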

[2] = target: T2, cloned human or rodent CNS receptors, channels, and transporters (PDSP panel) (Homo sapiens, UniProt P28335); conditions: 5-HT2C, primary assay; for Mean %: mean inhibition; for Inhibition 1: replicate 1; for Inhibition 2: replicate 2; for Inhibition 3: replicate 3; for Inhibition 4: replicate 4
T2 construct: expressed in transfected cells
T2 sequence (P28335 33-458): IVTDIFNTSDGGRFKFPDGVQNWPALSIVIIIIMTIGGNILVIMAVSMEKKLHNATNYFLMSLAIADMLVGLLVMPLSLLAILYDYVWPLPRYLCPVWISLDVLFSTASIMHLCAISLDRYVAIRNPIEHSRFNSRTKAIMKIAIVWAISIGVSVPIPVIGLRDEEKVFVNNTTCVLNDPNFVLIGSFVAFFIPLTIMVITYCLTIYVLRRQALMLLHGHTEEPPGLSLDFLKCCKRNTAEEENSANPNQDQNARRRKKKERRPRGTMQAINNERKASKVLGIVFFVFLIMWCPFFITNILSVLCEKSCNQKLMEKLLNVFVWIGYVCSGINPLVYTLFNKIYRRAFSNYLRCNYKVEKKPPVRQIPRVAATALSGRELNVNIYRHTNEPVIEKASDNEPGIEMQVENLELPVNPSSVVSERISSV
How it was run: as §1

[3] = target: T3, cloned human or rodent CNS receptors, channels, and transporters (PDSP panel) (Homo sapiens, UniProt P35368); conditions: Alpha1B, primary assay; for Mean %: mean inhibition; for Inhibition 1: replicate 1; for Inhibition 2: replicate 2; for Inhibition 3: replicate 3; for Inhibition 4: replicate 4
T3 construct: expressed in transfected cells
T3 sequence (P35368 1-520): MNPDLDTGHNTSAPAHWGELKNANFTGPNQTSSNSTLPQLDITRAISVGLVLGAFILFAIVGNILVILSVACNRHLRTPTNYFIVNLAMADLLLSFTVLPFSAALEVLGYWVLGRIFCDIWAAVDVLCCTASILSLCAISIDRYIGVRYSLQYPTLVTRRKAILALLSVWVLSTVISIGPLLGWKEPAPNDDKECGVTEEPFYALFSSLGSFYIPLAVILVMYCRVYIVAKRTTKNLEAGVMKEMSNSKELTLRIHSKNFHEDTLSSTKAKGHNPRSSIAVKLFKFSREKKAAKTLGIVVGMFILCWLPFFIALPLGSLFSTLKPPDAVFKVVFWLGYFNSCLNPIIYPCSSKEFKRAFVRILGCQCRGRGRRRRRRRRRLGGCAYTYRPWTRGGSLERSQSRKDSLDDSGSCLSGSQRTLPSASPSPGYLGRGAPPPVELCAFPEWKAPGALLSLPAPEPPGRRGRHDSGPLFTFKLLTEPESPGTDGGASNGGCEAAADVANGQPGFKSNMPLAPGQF
How it was run: as §1

[4] = target: T4, cloned human or rodent CNS receptors, channels, and transporters (PDSP panel) (Homo sapiens, UniProt P50406); conditions: 5-HT6, primary assay; for Mean %: mean inhibition; for Inhibition 1: replicate 1; for Inhibition 2: replicate 2; for Inhibition 3: replicate 3; for Inhibition 4: replicate 4
T4 construct: expressed in transfected cells
T4 sequence (P50406 whole entry): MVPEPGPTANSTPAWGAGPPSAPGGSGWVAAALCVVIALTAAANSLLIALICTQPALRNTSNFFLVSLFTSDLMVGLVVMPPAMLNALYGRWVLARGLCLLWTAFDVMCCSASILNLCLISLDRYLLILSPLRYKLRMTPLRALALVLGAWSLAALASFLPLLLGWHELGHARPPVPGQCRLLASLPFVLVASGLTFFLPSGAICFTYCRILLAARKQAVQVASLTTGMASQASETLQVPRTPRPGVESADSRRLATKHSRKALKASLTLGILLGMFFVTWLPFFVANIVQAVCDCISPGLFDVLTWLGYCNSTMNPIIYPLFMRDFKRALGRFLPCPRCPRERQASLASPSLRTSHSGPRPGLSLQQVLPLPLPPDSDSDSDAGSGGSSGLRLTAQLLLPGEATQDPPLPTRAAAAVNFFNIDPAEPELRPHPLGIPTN
How it was run: as §1

[5] = target: T5, cloned human or rodent CNS receptors, channels, and transporters (PDSP panel) (Homo sapiens, UniProt P21728); conditions: D1, primary assay; for Mean %: mean inhibition; for Inhibition 1: replicate 1; for Inhibition 2: replicate 2; for Inhibition 3: replicate 3; for Inhibition 4: replicate 4
T5 construct: expressed in transfected cells
T5 sequence (P21728 whole entry): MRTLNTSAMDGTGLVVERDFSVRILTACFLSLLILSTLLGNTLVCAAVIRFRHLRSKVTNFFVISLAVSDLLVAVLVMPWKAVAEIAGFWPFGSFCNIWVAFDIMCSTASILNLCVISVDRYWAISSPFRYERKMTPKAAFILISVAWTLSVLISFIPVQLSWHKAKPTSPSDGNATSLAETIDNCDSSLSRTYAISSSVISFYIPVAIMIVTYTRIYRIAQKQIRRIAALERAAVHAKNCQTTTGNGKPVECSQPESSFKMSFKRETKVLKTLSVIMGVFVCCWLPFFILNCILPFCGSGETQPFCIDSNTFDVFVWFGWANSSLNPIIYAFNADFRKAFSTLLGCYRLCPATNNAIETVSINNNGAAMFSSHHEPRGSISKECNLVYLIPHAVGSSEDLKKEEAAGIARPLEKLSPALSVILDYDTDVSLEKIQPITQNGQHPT
How it was run: as §1

[6] = target: T6, cloned human or rodent CNS receptors, channels, and transporters (PDSP panel) (Homo sapiens, UniProt P08173); conditions: M4, primary assay; for Mean %: mean inhibition; for Inhibition 1: replicate 1; for Inhibition 2: replicate 2; for Inhibition 3: replicate 3; for Inhibition 4: replicate 4
T6 construct: expressed in transfected cells
T6 sequence (P08173 1-479): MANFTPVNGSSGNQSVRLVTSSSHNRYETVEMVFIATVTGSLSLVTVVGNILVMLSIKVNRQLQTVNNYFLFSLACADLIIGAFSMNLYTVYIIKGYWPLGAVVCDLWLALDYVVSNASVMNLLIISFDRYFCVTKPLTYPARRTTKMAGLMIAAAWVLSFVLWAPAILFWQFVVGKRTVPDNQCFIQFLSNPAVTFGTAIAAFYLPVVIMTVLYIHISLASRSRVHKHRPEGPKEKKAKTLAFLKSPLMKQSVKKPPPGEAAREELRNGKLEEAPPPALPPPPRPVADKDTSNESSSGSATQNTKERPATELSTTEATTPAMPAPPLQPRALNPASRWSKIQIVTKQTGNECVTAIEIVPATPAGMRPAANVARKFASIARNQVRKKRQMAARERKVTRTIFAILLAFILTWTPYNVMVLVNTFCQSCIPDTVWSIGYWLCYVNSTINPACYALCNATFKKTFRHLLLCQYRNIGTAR
How it was run: as §1

[7] = target: T7, cloned human or rodent CNS receptors, channels, and transporters (PDSP panel) (Rattus norvegicus, UniProt P16257); conditions: PBR, primary assay; for Inhibition 1: replicate 1; for Inhibition 2: replicate 2; for Inhibition 3: replicate 3; for Inhibition 4: replicate 4
T7 construct: expressed in transfected cells
How it was run: as §1

[8] = target: T8, cloned human or rodent CNS receptors, channels, and transporters (PDSP panel) (Homo sapiens, UniProt P14416); conditions: D2, primary assay; for Mean %: mean inhibition; for Inhibition 1: replicate 1; for Inhibition 2: replicate 2; for Inhibition 3: replicate 3; for Inhibition 4: replicate 4
T8 construct: expressed in transfected cells
T8 sequence (P14416 whole entry): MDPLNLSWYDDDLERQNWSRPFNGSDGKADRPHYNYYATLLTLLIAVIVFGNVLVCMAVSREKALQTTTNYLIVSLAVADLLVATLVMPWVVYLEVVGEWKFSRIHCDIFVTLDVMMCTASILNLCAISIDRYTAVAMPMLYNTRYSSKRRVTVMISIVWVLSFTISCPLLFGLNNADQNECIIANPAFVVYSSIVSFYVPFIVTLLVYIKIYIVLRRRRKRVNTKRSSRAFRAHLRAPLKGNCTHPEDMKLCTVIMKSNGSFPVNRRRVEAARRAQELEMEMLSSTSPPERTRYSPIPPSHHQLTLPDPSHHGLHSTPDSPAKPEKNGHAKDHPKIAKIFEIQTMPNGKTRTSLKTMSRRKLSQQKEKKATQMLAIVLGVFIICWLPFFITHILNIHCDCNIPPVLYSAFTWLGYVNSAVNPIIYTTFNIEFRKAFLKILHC
How it was run: as §1

[9] = target: T9, cloned human or rodent CNS receptors, channels, and transporters (PDSP panel) (Homo sapiens, UniProt P28221); conditions: 5-HT1D, primary assay; for Mean %: mean inhibition; for Inhibition 1: replicate 1; for Inhibition 2: replicate 2; for Inhibition 3: replicate 3; for Inhibition 4: replicate 4
T9 construct: expressed in transfected cells
T9 sequence (P28221 whole entry): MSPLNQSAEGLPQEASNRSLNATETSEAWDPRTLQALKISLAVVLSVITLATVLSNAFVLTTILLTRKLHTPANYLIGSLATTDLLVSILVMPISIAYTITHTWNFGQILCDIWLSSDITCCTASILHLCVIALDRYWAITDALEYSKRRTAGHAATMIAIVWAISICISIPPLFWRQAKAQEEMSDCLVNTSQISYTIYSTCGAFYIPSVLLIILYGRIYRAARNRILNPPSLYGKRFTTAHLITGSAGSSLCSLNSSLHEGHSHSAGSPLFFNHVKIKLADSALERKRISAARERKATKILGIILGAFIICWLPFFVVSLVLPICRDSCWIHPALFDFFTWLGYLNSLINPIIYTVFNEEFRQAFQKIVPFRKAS
How it was run: as §1

In the case of CC(=O)N1CCC(NC(=O)NC23CC4CC(CC(C4)C2)C3)CC1 [UNC10302683A, AR9281], the Mean % [1] is reported as -0.64%, the “Inhibition 1” value [1] is reported as 23.19% and the “Inhibition 2” value [1] is reported as -3.93%. For the same compound, the “Inhibition 3” value [1] was -10.42%, the “Inhibition 4” value [1] was -11.4% and the Mean % [2] was -19.88%. For the same compound, the “Inhibition 1” value [2] was -9.33%, the “Inhibition 2” value [2] was -11.78% and the “Inhibition 3” value [2] was -20.61%. For the same compound, the “Inhibition 4” value [2] was -37.79%, the Mean % [3] was 5.33% and the “Inhibition 1” value [3] was 32.86%. The “Inhibition 2” value [3] was -1.86%, the “Inhibition 3” value [3] was 1.69% and the “Inhibition 4” value [3] was -11.37%. The Mean % [4] was 9.33%, the “Inhibition 1” value [4] was 32.27% and the “Inhibition 2” value [4] was 17.51%. For the same compound, the “Inhibition 3” value [4] was -5.68%, the “Inhibition 4” value [4] was -6.79% and the Mean % [5] was -14.57%. For the same compound, the “Inhibition 1” value [5] was -3.64%, the “Inhibition 2” value [5] was -20.64% and the “Inhibition 3” value [5] was -32.3%. For the same compound, the “Inhibition 4” value [5] was -1.7%, the Mean % [6] was 12.52% and the “Inhibition 1” value [6] was 4.48%. For the same compound, the “Inhibition 2” value [6] was 16.88%, the “Inhibition 3” value [6] was 4.25% and the “Inhibition 4” value [6] was 24.46%. For the same compound, the “Inhibition 1” value [7] was 10.97% and 6.98%, the “Inhibition 2” value [7] was -9.87% and 57.06% and the “Inhibition 3” value [7] was -4.95% and 7.94%. For the same compound, the “Inhibition 4” value [7] was -4.51% and 19.02%, the Mean % [8] was -5.85% and the “Inhibition 1” value [8] was -4.63%. For the same compound, the “Inhibition 2” value [8] was -2.98%, the “Inhibition 3” value [8] was -11.83% and the “Inhibition 4” value [8] was -3.95%. For the same compound, the Mean % [9] was 6.45%, the “Inhibition 1” value [9] was 17.8% and the “Inhibition 2” value [9] was 3.64%. The “Inhibition 3” value [9] was 4.06% and the “Inhibition 4” value [9] was 0.31%.
With MDL 28170 [UNC10302675A] the Mean % [1] was 7.62%, the “Inhibition 1” value [1] was 14.84% and the “Inhibition 2” value [1] was 5.24%. The “Inhibition 3” value [1] was 9.43%, the “Inhibition 4” value [1] was 0.96% and the Mean % [2] was -9.69%. For the same compound, the “Inhibition 1” value [2] was -16.2%, the “Inhibition 2” value [2] was -15.21% and the “Inhibition 3” value [2] was 9.82%. The “Inhibition 4” value [2] was -17.18%, the Mean % [3] was -5.99% and the “Inhibition 1” value [3] was -0.72%. For the same compound, the “Inhibition 2” value [3] was -4.38%, the “Inhibition 3” value [3] was -14.01% and the “Inhibition 4” value [3] was -4.84%. For the same compound, the Mean % [4] was -4.53%, the “Inhibition 1” value [4] was 18.94% and the “Inhibition 2” value [4] was -17.59%. For the same compound, the “Inhibition 3” value [4] was -16%, the “Inhibition 4” value [4] was -3.45% and the Mean % [5] was -0.08%. For the same compound, the “Inhibition 1” value [5] was 13.68%, the “Inhibition 2” value [5] was 11.74% and the “Inhibition 3” value [5] was -15.62%. For the same compound, the “Inhibition 4” value [5] was -10.12%, the Mean % [6] was 7.01% and the “Inhibition 1” value [6] was 5.86%. For the same compound, the “Inhibition 2” value [6] was -14.36%, the “Inhibition 3” value [6] was 13.67% and the “Inhibition 4” value [6] was 22.85%. For the same compound, the Mean % ([7]; mean inhibition) was 14.47% and 16.31%, the “Inhibition 1” value [7] was 31.01% and 31.3% and the “Inhibition 2” value [7] was 3.06% and 12.16%. The “Inhibition 3” value [7] was 7.19% and 13.84%, the “Inhibition 4” value [7] was 16.6% and 7.94% and the Mean % [8] was -18.47%. The “Inhibition 1” value [8] was -14.97%, the “Inhibition 2” value [8] was -19.19% and the “Inhibition 3” value [8] was -16%. For the same compound, the “Inhibition 4” value [8] was -23.71%, the Mean % [9] was 5% and the “Inhibition 1” value [9] was 13.22%. For the same compound, the “Inhibition 2” value [9] was 2.39%, the “Inhibition 3” value [9] was 4.89% and the “Inhibition 4” value [9] was -0.52%.
